Test results published in ChEMBL document CHEMBL5506005, “Biochemical and structural characterization of chlorhexidine as an ATP-assisted inhibitor against type 1 methionyl-tRNA synthetase from Gram-positive bacteria” (Eur J Med Chem, 2024).
Blank lines part the entries; values can stand above or below the molecule they belong to.

Experiments:
[1] = biological target: Methionine--tRNA ligase (Staphylococcus aureus (strain Mu50 / ATCC 700699)) (UniProt P67578); test: Inhibition of Staphylococcus aureus MetRS expressed in Escherichia coli BL21(DE3) cells at 100 uM measured after 2.5 hrs in presence of ATP by pre-transfer editing assay relative to control
[2] = biological target: Methionine--tRNA ligase (Staphylococcus aureus (strain Mu50 / ATCC 700699)) (UniProt P67578); test: Binding affinity to Staphylococcus aureus MetRS expressed in Escherichia coli BL21(DE3) cells assessed as change in melting temperature at 100 uM incubated for 10 mins followed by heat treatment by SYPRO orange dye based TSA (reference value: 53.7 degreeC)
[3] = biological target: Methionine--tRNA ligase (Staphylococcus aureus (strain Mu50 / ATCC 700699)) (UniProt P67578); test: Binding affinity to Staphylococcus aureus MetRS expressed in Escherichia coli BL21(DE3) cells assessed as change in melting temperature at 100 uM incubated for 10 mins followed by heat treatment in presence of 2 mM ATP by SYPRO orange dye based TSA (reference value: 56.4 degreeC)
[4] = biological target: Methionine--tRNA ligase (Staphylococcus aureus (strain Mu50 / ATCC 700699)) (UniProt P67578); test: Binding affinity to Staphylococcus aureus MetRS expressed in Escherichia coli BL21(DE3) cells assessed as change in entropy in presence of 50 uM ATP by ITC analysis
[5] = biological target: Methionine--tRNA ligase (Staphylococcus aureus (strain Mu50 / ATCC 700699)) (UniProt P67578); test: Binding affinity to Staphylococcus aureus MetRS expressed in Escherichia coli BL21(DE3) cells assessed as change in Gibbs free energy in presence of 20 uM ATP by ITC analysis
[6] = biological target: Methionine--tRNA ligase (Staphylococcus aureus (strain Mu50 / ATCC 700699)) (UniProt P67578); test: Binding affinity to Staphylococcus aureus MetRS expressed in Escherichia coli BL21(DE3) cells assessed as change in entropy in presence of 1 mM ATP by ITC analysis
[7] = biological target: Methionine--tRNA ligase (Staphylococcus aureus (strain Mu50 / ATCC 700699)) (UniProt P67578); test: Binding affinity to Staphylococcus aureus MetRS expressed in Escherichia coli BL21(DE3) cells assessed as change in entropy by ITC analysis
[8] = biological target: Methionine--tRNA ligase (Staphylococcus aureus (strain Mu50 / ATCC 700699)) (UniProt P67578); test: Binding affinity to Staphylococcus aureus MetRS expressed in Escherichia coli BL21(DE3) cells assessed as change in enthalpy in presence of 50 uM ATP by ITC analysis
[9] = biological target: Methionine--tRNA ligase (Staphylococcus aureus (strain Mu50 / ATCC 700699)) (UniProt P67578); test: Binding affinity to Staphylococcus aureus MetRS expressed in Escherichia coli BL21(DE3) cells assessed as change in enthalpy by ITC analysis
[10] = biological target: Methionine--tRNA ligase (Staphylococcus aureus (strain Mu50 / ATCC 700699)) (UniProt P67578); test: Binding affinity to Staphylococcus aureus MetRS expressed in Escherichia coli BL21(DE3) cells assessed as change in enthalpy in presence of 20 uM ATP by ITC analysis
[11] = biological target: Methionine--tRNA ligase (Staphylococcus aureus (strain Mu50 / ATCC 700699)) (UniProt P67578); test: Binding affinity to Staphylococcus aureus MetRS expressed in Escherichia coli BL21(DE3) cells assessed as change in Gibbs free energy in presence of 50 uM ATP by ITC analysis
[12] = biological target: Methionine--tRNA ligase (Staphylococcus aureus (strain Mu50 / ATCC 700699)) (UniProt P67578); test: Binding affinity to Staphylococcus aureus MetRS expressed in Escherichia coli BL21(DE3) cells assessed as change in Gibbs free energy by ITC analysis
[13] = biological target: Methionine--tRNA ligase (Staphylococcus aureus (strain Mu50 / ATCC 700699)) (UniProt P67578); test: Binding affinity to Staphylococcus aureus MetRS expressed in Escherichia coli BL21(DE3) cells assessed as thermal stability by measuring change in melting temperature incubated for 10 mins followed by heat treatment in presence of 2 mM ATP by SYPRO orange dye based TSA
[14] = biological target: Methionine--tRNA ligase (Staphylococcus aureus (strain Mu50 / ATCC 700699)) (UniProt P67578); test: Binding affinity to Staphylococcus aureus MetRS expressed in Escherichia coli BL21(DE3) cells assessed as change in entropy in presence of 20 uM ATP by ITC analysis
[15] = biological target: Methionine--tRNA ligase (Staphylococcus aureus (strain Mu50 / ATCC 700699)) (UniProt P67578); test: Binding affinity to Staphylococcus aureus MetRS expressed in Escherichia coli BL21(DE3) cells assessed as change in enthalpy in presence of 1 mM ATP by ITC analysis
[16] = biological target: Methionine--tRNA ligase (Staphylococcus aureus (strain Mu50 / ATCC 700699)) (UniProt P67578); test: Binding affinity to Staphylococcus aureus MetRS expressed in Escherichia coli BL21(DE3) cells assessed as change in Gibbs free energy in presence of 1 mM ATP by ITC analysis
Methionine--tRNA ligase [17] = biological target: T1, Methionine--tRNA ligase (Staphylococcus aureus (strain Mu50 / ATCC 700699), UniProt P67578); test: Binding affinity to Staphylococcus aureus MetRS expressed in Escherichia coli BL21(DE3) cells assessed as dissociation constant by ITC analysis
Methionine--tRNA ligase [18] = biological target: T2, Methionine--tRNA ligase (Enterococcus faecalis, UniProt A0A3N3ZFK4); test: Inhibition of Enterococcus faecalis type 1 MetRS expressed in Escherichia coli BL21(DE3) cells measured after 1.5 hrs in presence of ATP by pre-transfer editing assay
T2 sequence (A0A3N3ZFK4 whole entry): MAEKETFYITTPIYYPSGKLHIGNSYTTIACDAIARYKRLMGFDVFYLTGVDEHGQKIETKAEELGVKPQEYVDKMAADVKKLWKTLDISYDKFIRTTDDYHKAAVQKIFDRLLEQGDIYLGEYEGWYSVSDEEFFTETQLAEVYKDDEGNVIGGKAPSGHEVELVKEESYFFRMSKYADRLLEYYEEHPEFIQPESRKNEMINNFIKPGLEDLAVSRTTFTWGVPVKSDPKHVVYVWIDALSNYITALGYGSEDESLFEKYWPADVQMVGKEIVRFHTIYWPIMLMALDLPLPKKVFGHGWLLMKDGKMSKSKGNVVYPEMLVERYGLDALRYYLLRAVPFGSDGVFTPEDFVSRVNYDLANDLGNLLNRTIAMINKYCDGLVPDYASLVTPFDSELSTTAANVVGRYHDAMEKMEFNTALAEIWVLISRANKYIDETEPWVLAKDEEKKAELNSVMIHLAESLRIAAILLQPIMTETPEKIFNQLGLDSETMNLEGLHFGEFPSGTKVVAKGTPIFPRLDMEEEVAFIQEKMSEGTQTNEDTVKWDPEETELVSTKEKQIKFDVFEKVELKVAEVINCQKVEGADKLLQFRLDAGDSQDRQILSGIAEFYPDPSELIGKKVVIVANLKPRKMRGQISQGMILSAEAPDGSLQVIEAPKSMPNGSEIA

Methionine--tRNA ligase [19] = biological target: T2, Methionine--tRNA ligase; test: Binding affinity to Enterococcus faecalis type 1 MetRS expressed in Escherichia coli BL21(DE3) cells assessed as dissociation constant in presence of 1 mM ATP by ITC analysis
Methionine--tRNA ligase [20] = biological target: T1, Methionine--tRNA ligase; test: Binding affinity to Staphylococcus aureus MetRS expressed in Escherichia coli BL21(DE3) cells assessed as dissociation constant in presence of 20 uM ATP by ITC analysis
Methionine--tRNA ligase [21] = biological target: T1, Methionine--tRNA ligase; test: Inhibition of Staphylococcus aureus MetRS expressed in Escherichia coli BL21(DE3) cells measured after 2.5 hrs in presence of ATP by pre-transfer editing assay
Methionine--tRNA ligase [22] = biological target: T1, Methionine--tRNA ligase; test: Binding affinity to Staphylococcus aureus MetRS expressed in Escherichia coli BL21(DE3) cells assessed as dissociation constant in presence of 1 mM ATP by ITC analysis
Methionine--tRNA ligase [23] = biological target: T1, Methionine--tRNA ligase; test: Binding affinity to Staphylococcus aureus MetRS expressed in Escherichia coli BL21(DE3) cells assessed as dissociation constant in presence of 50 uM ATP by ITC analysis
Methionine--tRNA ligase [24] = biological target: T2, Methionine--tRNA ligase; test: Binding affinity to Enterococcus faecalis type 1 MetRS expressed in Escherichia coli BL21(DE3) cells assessed as dissociation constant by ITC analysis

inhibition [1]: > 99%
ΔTm [2]: 16.2 °C
ΔTm [3]: 20.3 °C
Molecule: C=C(F)c1sc(CNCCCNc2cc(=O)c3ccccc3[nH]2)c(C)c1Br

-TdeltaS [4]: 7.28 kcal/mol
deltaG [5]: -8 kcal/mol
-TdeltaS [6]: 6.23 kcal/mol
-TdeltaS [7]: 1.94 kcal/mol
deltaH [8]: -15.7 kcal/mol
deltaH [9]: -8.62 kcal/mol
deltaH [10]: -18 kcal/mol
deltaG [11]: -8.61 kcal/mol
deltaG [12]: -7.24 kcal/mol
ΔTm [13]: 9 °C
-TdeltaS [14]: 11.3 kcal/mol
deltaH [15]: -14.4 kcal/mol
deltaG [16]: -8.7 kcal/mol
Molecule: N=C(NCCCCNC(=N)NC(=N)Nc1ccc(Cl)cc1)NC(=N)Nc1ccc(Cl)cc1

inhibition [1]: < 20%
ΔTm [2]: 1.2 °C
ΔTm [3]: 1 °C
Molecule: VITAMIN E

Kd (Methionine--tRNA ligase [17]): 4.92 µM
IC50 (Methionine--tRNA ligase [18]): 16.1 µM
Kd (Methionine--tRNA ligase [19]): 150 nM
Kd (Methionine--tRNA ligase [20]): 1370 nM
IC50 (Methionine--tRNA ligase [21]): 17.3 µM
Kd (Methionine--tRNA ligase [22]): 452 nM
Kd (Methionine--tRNA ligase [23]): 493 nM
Kd (Methionine--tRNA ligase [24]): 2700 nM
Molecule: [H]/N=C(/NCCCCN/C(=N/[H])N/C(=N/[H])Nc1ccc(Cl)cc1)N/C(=N/[H])Nc1ccc(Cl)cc1
